Columns and labels:
Assay type in all cases: cell-based
[1] = system: DMS53; assay: 10-day Cell Titre Glo combination screen; conditions: Homo sapiens, DMS-53; DMS53 lung; monotherapy; read-out: mono AC50
Text: (§1) The Highest Single Agent (HSA) model is used to determine a combination's synergy score (and is based simply on the intuition that if a combination's effect exceeds the effect level of each of its constituents, there must be some combination interaction). Mathematically, the HSA model describes simple superposition of the single agent curves:
(§2) where CX,Y are the concentrations of the X and Y compound, and IX and IY are inhibitions of the single agents at CX,Y. It is also useful to calculate a volume score (HSA Volume) between the data and the HSA surface to characterise the overall strength of combination effects. Empirically derived combination matrices are compared to their respective HSA additivity models constructed from experimentally collected single agent dose response curves. Summation of this excess additivity across the dose response matrix is referred to HSA Volume.
(§3) Potency shifting can also be scored using combination index (CI). For a chosen iso-effect level (ICut), CI is calculated as: […]
(§4) where (CX/ECX) for a particular data point is the ratio of the X compound's measured concentration to its effective concentration at the chosen effect level. The CI is a rough estimate of how much drug was needed in combination relative to the single agent doses required to achieve the chosen effect level. CI values in the range of 0.5-0.7 are typical for in vitro measurements of current clinical combinations. The CI error (σCI) is calculated using standard error propagation through the CI calculation based on the isobologram errors.
(§5) This combination screen was a 10-day assay using Cell Titre Glo as the readout for viability.
(§6) The assay was performed in 384 well plates, with 1 cell line and 4 drug-drug combinations per plate dosed in a 6×6 matrix. A day zero reading was measured to determine growth inhibition. GenedataScreener was used to input the raw values for every well, and the software was programmed to normalise the values to the day zero and DMSO control values.
(§7) The CellTiter-Glo® Luminescent Cell Viability Assay is a homogeneous method to determine the number of viable cells in culture based on quantitation of the ATP present, which signals the presence of metabolically active cells. It relies on the properties of a proprietary thermostable luciferase (Ultra-Glo™ Recombinant Luciferase), which generates a stable “glow-type” luminescent signal and improves performance across a wide range of assay conditions.
(§8) The following information was reported: Synergy scores (HSA); combination index values; AC50 (half-maximal activity concentration) monotherapy values.

[2] = system: NCI-H1573; assay: 10-day Cell Titre Glo combination screen; conditions: Homo sapiens, NCI-H1573, 240 h, NCI-H1573 lung; monotherapy; read-out: mono AC50
Text: as §1, §2, §3, §4, §5, §6, §7, §8

[3] = system: NCI-H1650; assay: 10-day Cell Titre Glo combination screen; conditions: Homo sapiens, NCI-H1650, NCI-H1650 lung; monotherapy; read-out: mono AC50
Text: as §1, §2, §3, §4, §5, §6, §7, §8

[4] = system: NCI-H2009; assay: 10-day Cell Titre Glo combination screen; conditions: Homo sapiens; NCI-H2009 lung; monotherapy; read-out: mono AC50
Text: as §1, §2, §3, §4, §5, §6, §7, §8

[5] = system: NCI-H322; assay: 10-day Cell Titre Glo combination screen; conditions: NCI-H322, NCI-H322 lung; monotherapy; read-out: mono AC50
Text: as §1, §2, §3, §4, §5, §6, §7, §8

[6] = system: PC-9; assay: 10-day Cell Titre Glo combination screen; conditions: Homo sapiens; PC-9 lung; monotherapy; read-out: mono AC50
Text: as §1, §2, §3, §4, §5, §6, §7, §8

[7] = system: DU4475; assay: 10-day Cell Titre Glo combination screen; conditions: Homo sapiens, DU-4475; DU4475 breast; monotherapy; read-out: mono AC50
Text: as §1, §2, §3, §4, §5, §6, §7, §8

[8] = system: HCC1395; assay: 10-day Cell Titre Glo combination screen; conditions: Homo sapiens; HCC1395 breast; monotherapy; read-out: mono AC50
Text: as §1, §2, §3, §4, §5, §6, §7, §8

[9] = system: HCC1569; assay: 10-day Cell Titre Glo combination screen; conditions: Homo sapiens; HCC1569 breast; monotherapy; read-out: mono AC50
Text: as §1, §2, §3, §4, §5, §6, §7, §8

[10] = system: HCC15; assay: 10-day Cell Titre Glo combination screen; conditions: HCC15 lung; monotherapy; read-out: mono AC50
Text: as §1, §2, §3, §4, §5, §6, §7, §8

[11] = system: MCF7 T52; assay: 10-day Cell Titre Glo combination screen; conditions: Homo sapiens; MCF7 T52 breast; monotherapy; read-out: mono AC50
Text: as §1, §2, §3, §4, §5, §6, §7, §8

[12] = system: NCI-H1666; assay: 10-day Cell Titre Glo combination screen; conditions: Homo sapiens; NCI-H1666 lung; monotherapy; read-out: mono AC50
Text: as §1, §2, §3, §4, §5, §6, §7, §8

[13] = system: NCI-H1792; assay: 10-day Cell Titre Glo combination screen; conditions: Homo sapiens; NCI-H1792 lung; monotherapy; read-out: mono AC50
Text: as §1, §2, §3, §4, §5, §6, §7, §8

[14] = system: NCI-H23; assay: 10-day Cell Titre Glo combination screen; conditions: Homo sapiens; NCI-H23 lung; monotherapy; read-out: mono AC50
Text: as §1, §2, §3, §4, §5, §6, §7, §8

[15] = system: SUM149PT 53BP1 KO cell pools; assay: Clonogenic proliferation assay (14 days, SRB)
Protocol: (§9) Parental BRCA1 mutant SUM149PT breast cancer cell line (Elstrodt 2006) were obtained from AstraZeneca Cell Bank at Alderley Park, Macclesfield. Cells were routinely grown in Ham's F12 media containing 5% foetal calf serum, 1% glutamine (2 mM), 500 ng/ml hydrocortisone and 5% insulin. SUM149PT 53BP1 WT (CNTR) and 53BP1 null (KO) cell pools were generated by CRISPR-Cas9 technology. Short guide (sg) RNA targeting TP53BP1 on exon 10 (GAGTAGATCGGAAAGCATC) and a non-targeting CNTR guide (GAGTAGATCGGAAAGCATC) were designed and cloned into a lentiviral vector containing a mClover3 cassette for green fluorescence signal and hygromycin cassette for selection (pKLV2-U6gRNA (Bbsl)-EF1a-mClover3-T2A-HygR-W). Lentiviruses were generated from both KO and CNTR (sg) RNA and Cas9 (pKLVEF1a-Cas9Bsd-W) plasmids and parental cells were transduced first with Cas9 lentiviruses followed by blasticidin selection and then with KO and CNTR lentiviruses followed by hygromycin selection. Loss of 53BP1 was verified by analysing 53BP1 protein expression from whole cell lysates by western blotting (Novus, NB100-304, 1:1000 dilution).
(§10) Cells were seeded onto 6-well plates, three replicates per cell line, and 24 hours later the cells were dosed with AZD6738/AZD5305. For monotherapies the cells were dosed with a 6-point concentration response of AZD6738 (0 to 0.64 μM) or AZD5305 (0 to 1 μM). For combination treatments single dose of AZD5305 (10 nM) was used with a 5-point concentration response of AZD6738 (0 to 0.64 μM) for 53BP1 KO cells. Cells were grown for 14 days for colony formation without media changes. Cells were fixed with 10% TCA (Tricloroacetic acid). 14 days after dosing any formed colonies were stained with 0.057% SRB (sulforhodamine B acid), imaged with GelCount™ (Oxford OPTRONIX) at 600 dpi resolution and the stained colony growth intensity was measured using plate reader with OD @[…]. Dose response curves were generated and IC50 concentrations were calculated using GraphPad PRISM software.

[16] = system: SUM149PT 53BP1 WT (CNTR) cells; assay: Clonogenic proliferation assay (14 days, SRB); conditions: Homo sapiens; SUM149PT 53BP1 WT (CNTR); monotherapy; read-out: IC50, clonogenic growth
Protocol: as §9, §10

Structure (SMILES) | AC50 [1] [nM] | AC50 [2] [nM] | AC50 [3] [nM] | AC50 [4] [nM] | AC50 [5] [nM] | AC50 [6] [nM] | AC50 [7] [nM] | AC50 [8] [nM] | AC50 [9] [nM] | AC50 [10] [nM] | AC50 [11] [nM] | AC50 [12] [nM] | AC50 [13] [nM] | AC50 [14] [nM] | growth inhibition as monotherapy ([15]; 10 nM, cell pool not given) | sensitivity, clonogenic growth ([15]; SUM149PT 53BP1 KO, monotherapy) | IC50 [16] [nM]
CCc1cc2ccc(CN3CCN(c4ncc(C)n4C)CC3)cc2[nH]c1=O [AZ14114554, 7-((4-(1,5-dimethyl-1H-imidazol-2-yl)piperazin-1-yl)methyl)-3-ethylquinolin-2 (1H)-one] | 62.2 | 19.6 | 63.2 | 105 | 1.23 | 97100 | – | – | – | – | – | – | – | – | – | – | –
CCc1cc2ncc(CN3CCN(c4ccc(C(=O)NC)nc4)CC3)cc2[nH]c1=O [AZD5305, 5-{4-[(7-ethyl-6-oxo-5,6-dihydro-1,5-naphthyridin-3-yl)methyl]piperazin-1-yl}-N-methylpyridine-2-carboxamide] | – | 47.7 | – | – | – | – | 120 | 5.73 | 22100 | 7.7 | 41.8 | 9.36 | 24.5 | 4.13 | does not show growth inhibition | completely resistant | ~6

— patent US20250352539A1, “COMBINATION THERAPY FOR TREATING CANCER” (AstraZeneca AB, priority 2022, published 2025)
